Data taken from patent US20190211397A1, “INHIBITORS OF GPR132 FOR USE IN PREVENTING AND/OR TREATING CHEMOTHERAPY-INDUCED NEUROPATHIC PAIN” (Fraunhofer-Gesellschaft zur Foerderung der angewandten …, priority 2016, published 2019).

Columns and labels:
[1] = tested on: wild type, TRPV1-deficient and G2A-deficient mice; experiment: Mechanical pain thresholds after intraplantar 9-HODE in oxaliplatin-treated mice; assay type: in vivo; settings: for mechanical pain thresholds after intraplantar 9-HODE: day eight after oxaliplatin treatment; for mechanical paw withdrawal latencies after intraplantar 9-HODE: day 8 of oxaliplatin treatment
Text: In all behavioral tests the experimenter was unaware of the treatment and the genotype of the mice. For all behavioral experiments we used only 6-12 weeks old C57BU6N mice purchased from commercial breeding companies (Charles River, Sulzfeld, Germany, Janvier, Le Geneset-Saint-lsle, FR). G2A and TRPV1 knockout strains were from Jackson laboratories. All experiments followed the ethics guidelines for investigations in conscious animals and the procedures were approved by the local Ethics Committee.
For the intra plantar (i.pl.) treatment with 9-HODE (1 0 (JM) (Cayman), a volume of 10 (JI was injected in the mid-plantar area of the hindpaw. For the intraperitoneal (i.p.) treatment, 100 (JI of oxaliplatin (3 mg/kg, Tocris) were injection into the peritoneum. The control group animals were treated with the corresponding volumes of 0.9% saline solution.
To determine the mechanical thresholds of mice, a Dynamic Plantar Aesthesiometer (Ugo Basile, Comerio, Italy) was used. Mice were put on an elevated grid in test cages at least 2 h before the measurement to allow accommodation. Then, baseline measurement was performed before the treatment with Oxaliplatin or 9-HODE. Therefore, a steel rod pushed against the plantar side of the hind paw with linear ascending force (0-5 g over 10 s, in 0.5 g/s intervals) until a fast withdraw of the paw was observed The time between the first contact of the steel rod and the paw withdraw was measured in seconds (paw withdraw latency) and a cut-off time of 20 s was set.

DRG neurons = experiment: Neuronal CGRP release from DRG neurons; assay type: cell-based, mice; settings: 9-HODE 1 μM with capsaicin 400 nM, 10 min
Procedure: For the determination of neuronal calcitonin gene-related peptide (CGRP) release, dorsal root ganglia (DRGs) neurons were isolated from mice as previously described (Brenneis et al., 2011 a). Briefly, DRG cultures were stimulated for 10 m in with 1 μM (±) 9-HODE (Cayman) alone or in combination with 400 nM capsaicin (Sigma). Cultures supplemented with capsaicin alone served as control. CGRP concentrations in supernatants were analysed utilizing the rat CGRP Enzyme ImmunoAssay Kit (SPI-Bio, Montigny, France) according to the manufacturer's instructions. Absorption was measured with the help of the Spectra Max 250 (Molecular Devices, lsmaning, Germany)

TRPM8 = molecular target: T1, TRPM8 (Mus musculus, UniProt Q8R4D5); experiment: Calcium imaging of DRG neurons: TRPM8 sensitization (menthol); assay type: cell-based, mice; settings: activated with menthol 100 μM
T1 construct: endogenous in cells; host or cells: primary murine dorsal root ganglion (DRG) neurons
Procedure: (§1) DRG primary cultures were prepared as described previously (Brenneis et al., 2011 b). Briefly, twenty to thirty murine dorsal roots ganglia (DRGs) were dissected from spinal segments and transferred directly into ice-cold Hanks' balanced salt solution with CaCI2 and MgCI2 (lnvitrogen, Carlsbad, Calif., USA). The DRGs were than incubated with Neurobasal Medium (lnvitrogen, Carlsbad, Calif., USA) containing 500 U/ml collagenase (Sigma, Deisenhofen, Germany) and 2.5 U/ml dispase II (Roche, Mannheim, Germany) for 75 mins at 37° C. After removal of the collagenase/dispase-solution cells were washed three times with medium containing 10% FCS, penicillin/streptomycin/gentamycin (lnvitrogen, Carlsbad, Calif., USA) and incubated in 0.05% trypsin for 10 min at 37° C. After two washing steps, the cells were mechanically dissociated with a 1 ml pipette and plated on Poly-L-lysine (Sigma) coated coverslips. […]
(§2) Calcium-imaging experiments were performed with a Leica calcium-imaging setup, consisting of a Leica DMI 4000 b inverted microscope equipped with a DFC360 FX (CCD) camera, Fura-2 filters, and an N-Plan 10×/0.25 Ph1 objective (all from Leica), was used. […] For each experiment, an area with large cell numbers 24 h after preparation (see DRG primary cultures) was chosen and 40-110 cells were monitored simultaneously. […]

TRPA1 = molecular target: T2, TRPA1 (Mus musculus, UniProt Q8BLA8); experiment: Calcium imaging of DRG neurons: TRPA1 sensitization (allyl isothiocyanate); assay type: cell-based, mice; settings: activated with AITC 50 μM
T2 construct: endogenous in cells; host or cells: primary murine dorsal root ganglion (DRG) neurons
Procedure: as §1, §2

T2 sequence (Q8BLA8 whole entry): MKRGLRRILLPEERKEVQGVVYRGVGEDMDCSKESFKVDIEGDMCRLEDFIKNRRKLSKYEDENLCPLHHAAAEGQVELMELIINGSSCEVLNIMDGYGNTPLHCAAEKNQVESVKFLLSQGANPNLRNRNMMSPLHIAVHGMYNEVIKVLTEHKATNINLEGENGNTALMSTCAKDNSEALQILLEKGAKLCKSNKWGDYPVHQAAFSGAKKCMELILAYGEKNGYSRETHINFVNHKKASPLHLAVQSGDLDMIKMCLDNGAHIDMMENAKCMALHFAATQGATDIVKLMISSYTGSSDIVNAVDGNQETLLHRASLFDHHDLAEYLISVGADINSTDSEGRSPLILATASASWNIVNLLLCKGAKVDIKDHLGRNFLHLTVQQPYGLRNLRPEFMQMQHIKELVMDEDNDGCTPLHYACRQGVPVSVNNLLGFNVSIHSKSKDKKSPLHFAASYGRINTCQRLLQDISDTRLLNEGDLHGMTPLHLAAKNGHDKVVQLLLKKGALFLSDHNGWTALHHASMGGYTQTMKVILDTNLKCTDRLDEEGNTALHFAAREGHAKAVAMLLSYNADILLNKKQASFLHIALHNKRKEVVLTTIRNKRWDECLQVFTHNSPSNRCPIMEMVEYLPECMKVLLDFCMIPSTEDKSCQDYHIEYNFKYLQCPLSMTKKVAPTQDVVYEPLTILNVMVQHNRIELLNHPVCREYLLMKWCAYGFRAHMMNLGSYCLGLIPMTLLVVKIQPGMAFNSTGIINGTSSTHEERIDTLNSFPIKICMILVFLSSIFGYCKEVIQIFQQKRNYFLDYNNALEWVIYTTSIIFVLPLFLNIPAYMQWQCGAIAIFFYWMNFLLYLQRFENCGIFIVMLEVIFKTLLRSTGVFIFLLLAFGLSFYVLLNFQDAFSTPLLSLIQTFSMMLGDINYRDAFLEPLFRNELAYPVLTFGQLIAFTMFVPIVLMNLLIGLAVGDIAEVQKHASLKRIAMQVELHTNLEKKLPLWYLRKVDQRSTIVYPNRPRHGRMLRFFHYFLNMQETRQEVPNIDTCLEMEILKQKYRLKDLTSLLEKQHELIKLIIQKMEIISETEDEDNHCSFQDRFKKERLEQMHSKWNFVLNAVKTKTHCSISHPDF
T1 sequence (Q8R4D5 whole entry): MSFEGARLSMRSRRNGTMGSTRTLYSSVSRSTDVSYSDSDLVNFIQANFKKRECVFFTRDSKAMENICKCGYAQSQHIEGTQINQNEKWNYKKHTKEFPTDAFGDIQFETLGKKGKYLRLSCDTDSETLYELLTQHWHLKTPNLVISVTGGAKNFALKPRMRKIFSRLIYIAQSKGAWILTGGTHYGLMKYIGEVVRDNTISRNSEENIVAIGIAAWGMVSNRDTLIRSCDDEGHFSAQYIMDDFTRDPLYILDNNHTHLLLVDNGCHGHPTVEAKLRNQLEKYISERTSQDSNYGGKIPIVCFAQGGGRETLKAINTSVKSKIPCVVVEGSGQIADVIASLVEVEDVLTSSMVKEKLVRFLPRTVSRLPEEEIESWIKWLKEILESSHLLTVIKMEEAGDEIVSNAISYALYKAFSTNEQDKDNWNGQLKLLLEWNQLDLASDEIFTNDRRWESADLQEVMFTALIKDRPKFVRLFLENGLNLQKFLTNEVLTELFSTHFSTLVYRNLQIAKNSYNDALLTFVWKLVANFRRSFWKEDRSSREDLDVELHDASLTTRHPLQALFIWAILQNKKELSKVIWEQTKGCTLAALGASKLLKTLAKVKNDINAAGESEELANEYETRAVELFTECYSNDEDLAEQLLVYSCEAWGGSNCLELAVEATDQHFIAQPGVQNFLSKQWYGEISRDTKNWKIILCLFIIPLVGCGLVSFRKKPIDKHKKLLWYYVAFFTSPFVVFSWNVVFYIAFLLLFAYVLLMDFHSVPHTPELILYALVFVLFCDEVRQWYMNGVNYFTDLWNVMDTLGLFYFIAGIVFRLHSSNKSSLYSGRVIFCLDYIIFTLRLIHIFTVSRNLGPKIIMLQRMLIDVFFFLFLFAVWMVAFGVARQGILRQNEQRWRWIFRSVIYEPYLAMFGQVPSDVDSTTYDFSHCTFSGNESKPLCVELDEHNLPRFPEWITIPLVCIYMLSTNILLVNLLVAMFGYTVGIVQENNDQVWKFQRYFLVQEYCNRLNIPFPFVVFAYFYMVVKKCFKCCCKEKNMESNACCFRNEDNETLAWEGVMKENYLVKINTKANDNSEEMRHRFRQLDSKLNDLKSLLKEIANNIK

CCCCC/C=C\C=C\C(O)CCCCCCCC(=O)O (stereo not shown) [9-HODE, 9-hydroxy-10E,12Z-octadecadienoic acid]
mechanical pain thresholds after intraplantar 9-HODE ([1]; G2A-deficient mice): not in G2A-deficient mice | mechanical paw withdrawal latencies after intraplantar 9-HODE ([1]; TRPV1-deficient mice): not in TRPV1-deficient mice | mechanical paw withdrawal latencies after intraplantar 9-HODE ([1]; wild type mice, ipsilateral paw (TRPV1 study)): strong reduction of mechanical paw withdrawal latencies | mechanical pain thresholds after intraplantar 9-HODE ([1]; wildtype mice, left hind paw (G2A study, 10 μM)): strong reduction of mechanical pain thresholds | capsaicin-dependent CGRP release (DRG neurons): increased the capsaicin-dependent CGRP release significantly | sensitizing effects for TRPM8 (TRPM8): no sensitizing effects | sensitizing effects for TRPA1 (TRPA1): no sensitizing effects
